Source: patent publication EP1087941B9, “THIOLESTERS AND USES THEREOF” (THE UNITED STATES OF AMERICA, as represented by THE …, priority 1998, dated 1999)
Like-named read-outs stand apart in the source and are kept apart here.

How the values were obtained:
HIV-1 virus = assay: Virus inactivation determined by PCR assay for intracellularly synthesized viral RNA; type: cell-based
Text: The thiolester-treated virions can also be tested for infectivity. The virions are suspended in media (rather than solubilized) and added to target cells. The cultures are then examined to determine whether the virions are still active. To determine whether the treated virus particles are active, the cells are monitored for the presence of intracellularly-synthesized viral RNA using, for example, the polymerase chain reaction (PCR) (Rice (1993) Proc. Natl. Acad. Sci. USA 90:9721; Turpin (1996) J. Virol. 70:6180). Alternatively, cytoprotection assays can be used (Weislow (1993) J. Natl. Cancer Inst. 81:577).
An example of a compound which can be used as a control in the gel mobility shift assay is azodicarbonamide (ADA), a compound which is commercially available from the Aldrich Chemical Company (Milwaukee, WI).

[1] = molecular target: T1, Virion-associated NCp7 proteins from cell-free HIV-1MN (Human immunodeficiency virus type 1 group M subtype B, UniProt P05888); assay: Intravirion NCp7 cross-linking, non-reducing Western blotting
T1 construct: an attack on the mature NCp7 retroviral zinc fingers in the cell-free virus; endogenous in cells
Procedure: The interaction of zinc finger inhibitors, such as the thiolesters of the invention, with cell-free virus can result in modification of intravirion NCp7 protein and loss of infectivity. Virion-associated NCp7 proteins from cell-free HIV-1MN were treated with thiolester compounds 44 and 45. They were also evaluated by non-reducing Western blotting using HIV-1 NCp7-specific antibodies. […] Cross-linking by compound 45 was due to formation of intermolecular disulfide bonds because reduction with 2-mercaptoethanol (β-ME) completely reversed the gel retardation.
Virion cross linking was performed as described by Rice (1995) Science 270:1194-1197 and Turpin (1997) Antiviral Chem. Chemother. 8:60-67. Briefly, highly purified HIV-1 MN (11.8 µg total protein) was incubated for 2 hour with concentrations of compound. Virions were concentrated and residual compound was removed by centrifugation (18,000 x g, 1 h, 4°C). The viral pellet was solubilized in 0.5 M Tris-HCl,(pH 6.8), 50% glycerol, 8% SDS and 0.4% bromophenol blue and proteins resolved by Western blotting. Western blotting to detect the expression of HIV-1 proteins in U1 cells or virus pellets for virion cross-linking experiments was carried out as described by Turpin (1996) J. Virol. 70:6180-6189. Briefly, 50 µg of total cellular protein for U1 experiments or the total virion pellet (11.8 µg total viral protein) for NCp7 cross linking studies was resolved on 4 to 20% polyacrylamide gels in SDS with Tris-Glycine (Novex, San Diego CA). Samples for reduced gels were boiled for 5 min in the presence of 5% β-ME prior to loading. Resolved proteins were electroblotted on to polyvinylidene difluoride (PVDF) membranes, and HIV-1 specific proteins were detected using a mixture of goat anti- HIV-1 NCp7 and p24 or anti-NCp7 for virion proteins alone (a kind gift of L. E. Henderson, AIDS Vaccine Program NCI-FCRDC, Frederick, MD). Western blots were developed using standard chemiluminescence methodologies, as produced and described by Dupont-NEN, Wilmington, DE.
Purified concentrated retrovirus and antisera against the purified NC protein of the virus can be used to test the ability of a specific compound to penetrate the virus and react with the NC protein by forming disulfide complexes in the core of the virus. Compound are mixed with the whole retrovirus under reaction conditions appropriate for the compound. The virus is then removed from the reagent by centrifugation and disrupted in, e.g., standard SDS-PAGE sample buffer with (reduced) and without (non-reduced) 2-mercaptoethanol. […] Thus, compounds of interest (i.e., those which cause cross-linking), including the thiolesters of the invention, reduce the amount of monomeric zinc finger protein detected.

CEM-SS cells = assay: cells; type: cell-based; conditions: Homo sapiens, CEM-SS
Text: (§1) One exemplary means to determine antiviral activity is with CEM-SS cells and virus (e.g., HIV-1RF) (MOI = 0.01) using the XTT (2,3-bis[2-methoxy- 4-nitro-5-sulfophenyl] -5- [(phenylamino)carbonyl]-2H-tetrazolium hydroxide) cytoprotection assay, as described by Rice (1993) PNAS 90:9721-9724, and Rice (1997) Antimicrob. Agents Chemother. 41:419-426. Briefly, cells are infected with HIV-1RF (or other virus to be tested) in the presence of various dilutions of test compounds (thiolesters and controls). The cultures are incubated for seven days. During this time control cultures without protective compounds (i.e., compounds with anti-viral activity) replicate virus, induce syncytia, and result in about 90% cell death. The cell death is measured by XTT dye reduction. XTT is a soluble tetrazolimn dye that measures mitochondrial energy output, similar to MTT. Positive controls using dextran sulfate (an attachment inhibitor) or 3'-Azido -2'-3'-dideoxythymidine, AZT (a reverse transcriptase inhibitor) are added to each assay. Individual assays are done in duplicate using a sister plate method.
(§2) Effective antiviral concentrations providing 50% cytoprotection (EC50), and cellular growth inhibitory concentrations causing 50% cytotoxicity (IC50) are calculated.

[2] = molecular target: T2, recombinant HIV-1 NCp7 protein (Human immunodeficiency virus type 1 group M subtype B, UniProt P03347); assay: Trp37 zinc finger fluorescence (zinc ejection) assay; type: biochemical; conditions: for Zinc Finger Reactivity RFU/ min: average decrease in relative fluorescence units over 30 min
T2 construct: within the nucleocapsid p7 (NCp7) protein portion of the polyprotein
Procedure: Zinc finger reactivity was measured using a Zn specific fluorochrome, TSQ, N-(6-methoxy-8-quinolyl) -p-toluenesulfonamide, assay or a Trp37 zinc finger fluorescence assay. Fluorescent measurements of the Trp37 residue in the C-terminal finger of recombinant HIV-1 NCp7 protein were performed as described by Rice (1995) Science 270:1194-1197; Rice (1997) Antimicrob. Agents Chemother. 41:419-426. Measurement of Zn ejection from both fingers was measured using the Zn-selective fluorchrome probe TSQ (Molecular Probes, Eugene OR) as described by Rice (1996) J. Med. Chem 39:3606-3616. Measurement of the ability of NCp7 to bind to a DNA oligomer, a 44 mer: […] (SEQ ID NO:1), analogous to the HIV-1 RNA packaging site was carried out as described by Huang (1998) J. Med. Chem. 41:1371-1381, see also, Rossio (1998) HIV Pathogenesis and Treatment: Keystone Symposium on Molecular and Cellular Biology, Abstract # 4082. Briefly, 50 nM NCp7 was treated with test compounds for 1 hour at RT in […] buffer containing 10% glycerol and 50 mM Tris-HCl (pH 7.5). Labeled oligomer (0.1 picomole, end labeled [^32P]) was added in an equal volume of buffer containing 10% glycerol, 50 mM Tris-HCl (pH 7.5), 400 mM KCl and 40 mM MgCl2. The reaction was continued for 15 min at room temperature, and a total of […] (or 1/4 of the total reaction volume) was separated on nondenaturing 4.5% polyacrylamide gels in 0.5X Tris-Borate electrophoresis buffer. NCp7-oligomer complexes were visualized by autoradiography.
Changes in the intrinsic fluorescence of aromatic protein moieties are commonly used to monitor a reaction which involves a change in protein conformation. In the present invention, fluorescence can be used to monitor the loss of metal ion from a zinc finger, e.g., the loss of zinc from a CCHC retroviral zinc finger protein, after contact with a thiolester of the invention. The intrinsic fluorescence of Trp 37 in the second zinc finger of HIV-1 NC protein has been used to monitor nucleic acid binding and conformation of the zinc finger complex (see, Summers (1992) supra).
Zinc ejection is measured by the ability of compounds to chemically attack the cysteines in purified NCp7 protein resulting in a loss of fluorescence due to the movement of the tryptophan 37 residue from an exposed to an internal position on the protein. Zinc ejection is measured and expressed as either percent decrease in total fluorescence or decrease in relative fluorescence units per min during a 30 min assay (RFU/min). A thiolester is considered within the scope of the invention if any amount of zinc ejection is detected. For example, compound 50 has a zinc ejection rate of 0.86 RFU/min.

HIV-1RF = assay: XTT cytoprotection assay (antiviral activity); type: cell-based; conditions: for antiviral activity: result in words
Text: as §1, §2

[3] = read-out: Antiviral Activity IC50%
[4] = Human immunodeficiency virus 1, read-out: Antiviral Activity EC50
[5] = read-out: IC50 / cellular toxicity
[6] = read-out: Antiviral Activity IC50
[7] = Human immunodeficiency virus 1, read-out: Antiviral Activity EC50%

SMILES	IC50 (CEM-SS cells; [3]) [µM]	IC50 (CEM-SS cells; [6]) [µM]	Zinc Finger Reactivity RFU/ min ([2]; Table 6) [RFU/ min]	EC50 (HIV-1RF; [7]) [µM]	other results
NC(=O)N=NC(N)=O [ADA, azodicarbonamide]					inactivation of HIV-1 virus (HIV-1 virus): inactivates HIV-1 virus
Cc1cn([C@H]2C[C@H](N=[N+]=[N-])[C@@H](CO)O2)c(=O)[nH]c1=O [AZT, 3'-Azido-2'-3'-dideoxythymidine, reference compound]					intravirion NCp7 cross-linking [1]: failed to cross-link NCp7
CC(=O)NS(=O)(=O)c1ccc(NC(=O)c2ccccc2NC(=O)CCl)cc1 [Compound 39]	202				Zinc Finger Reactivity RFU/ min ([2]; Table 5): 0.3 RFU/ min; EC50 (HIV-1RF; [4]): > 316 µM; antiviral activity (HIV-1RF): completely inactive
CC(=O)NS(=O)(=O)c1ccc(NC(=O)c2ccccc2SC(C)=O)cc1 [Compound 40]	56.7				IC50 (CEM-SS cells; [5]): ~50 µM; Zinc Finger Reactivity RFU/ min ([2]; Table 5): 4.2 RFU/ min; EC50 (HIV-1RF; [4]): 2.8 µM
CC(=O)NS(=O)(=O)c1ccc(NC(=O)c2ccccc2SC(=O)c2ccccc2)cc1 [Compound 41]	45.7				IC50 (CEM-SS cells; [5]): ~50 µM; Zinc Finger Reactivity RFU/ min ([2]; Table 5): 2.2 RFU/ min; EC50 (HIV-1RF; [4]): 2.6 µM
COc1ccc(C(=O)Sc2ccccc2C(=O)Nc2ccc(S(=O)(=O)NC(C)=O)cc2)cc1 [Compound 42]	43.7				IC50 (CEM-SS cells; [5]): ~50 µM; Zinc Finger Reactivity RFU/ min ([2]; Table 5): 3.5 RFU/ min; EC50 (HIV-1RF; [4]): 2.8 µM
O=C(CCCCBr)Sc1ccccc1C(=O)Nc1ccc(S(=O)(=O)c2ccc([N+](=O)[O-])cc2)cc1 [Compound 46]		21.7	1	1.6	
NS(=O)(=O)c1ccc(CNC(=O)c2ccccc2SC(=O)CCCC[n+]2ccccc2)cc1 [Compound 48]		55	1.4	1.1	IC50 (CEM-SS cells; [5]): 55 µM
O=C(CCCCBr)Sc1ccccc1C(=O)Nc1ccc(S(=O)(=O)c2ccc(NS(=O)(=O)Cc3ccccc3[N+](=O)[O-])cc2)cc1 [Compound 49]		> 316	1.9	> 316	
O=C(CCCC[n+]1ccccc1)Sc1ccccc1C(=O)Nc1ccc(S(=O)(=O)c2ccc(NS(=O)(=O)Cc3ccccc3[N+](=O)[O-])cc2)cc1 [Compound 50]		> 316	0.86	2.9	zinc finger reactivity / zinc ejection rate [2]: 0.86 RFU/min
CC(=O)Nc1ccc(S(=O)(=O)c2ccc(NC(=O)c3ccccc3SC(=O)CCCC[n+]3ccccc3)cc2)cc1 [Compound 51]		288	1.7	4.6	
CC(=O)Nc1cccc(S(=O)(=O)c2cccc(NC(=O)c3ccccc3SC(=O)CCCC[n+]3ccccc3)c2)c1 [Compound 52]		205	1.1	4.9	
CC(=O)NS(=O)(=O)c1ccc(NC(=O)c2ccccc2SC(=O)CCC[n+]2ccccc2)cc1 [Compound 54]	175			10.1	Zinc Finger Reactivity RFU/ min ([2]; Table 10): 2.2 RFU/ min
CC(=O)NS(=O)(=O)c1ccc(NC(=O)c2ccccc2SC(=O)CCCCC[n+]2ccccc2)cc1 [Compound 55]	69.7			10.5	Zinc Finger Reactivity RFU/ min ([2]; Table 10): 1.9 RFU/ min
CC(=O)NS(=O)(=O)c1ccc(NC(=O)c2ccccc2NC(=O)CCCC[n+]2ccccc2)cc1 [Compound 56]	> 316			> 316	Zinc Finger Reactivity RFU/ min ([2]; Table 10): 2.6 RFU/ min; antiviral activity (HIV-1RF): inactive
CC(=O)NS(=O)(=O)c1ccc(NC(=O)c2ccccc2SC(=O)CCCC[n+]2cccc(Cl)c2)cc1 [Compound 57]	264			54	Zinc Finger Reactivity RFU/ min ([2]; Table 10): 0.2 RFU/ min
